How the values were obtained:
DNA topoisomerase 1 = target: T1, DNA topoisomerase 1 (Homo sapiens, UniProt P11387); test: Topoisomerase I Relaxation Assay; conditions: pH 7.8; 37 °C
T1 sequence (P11387 whole entry): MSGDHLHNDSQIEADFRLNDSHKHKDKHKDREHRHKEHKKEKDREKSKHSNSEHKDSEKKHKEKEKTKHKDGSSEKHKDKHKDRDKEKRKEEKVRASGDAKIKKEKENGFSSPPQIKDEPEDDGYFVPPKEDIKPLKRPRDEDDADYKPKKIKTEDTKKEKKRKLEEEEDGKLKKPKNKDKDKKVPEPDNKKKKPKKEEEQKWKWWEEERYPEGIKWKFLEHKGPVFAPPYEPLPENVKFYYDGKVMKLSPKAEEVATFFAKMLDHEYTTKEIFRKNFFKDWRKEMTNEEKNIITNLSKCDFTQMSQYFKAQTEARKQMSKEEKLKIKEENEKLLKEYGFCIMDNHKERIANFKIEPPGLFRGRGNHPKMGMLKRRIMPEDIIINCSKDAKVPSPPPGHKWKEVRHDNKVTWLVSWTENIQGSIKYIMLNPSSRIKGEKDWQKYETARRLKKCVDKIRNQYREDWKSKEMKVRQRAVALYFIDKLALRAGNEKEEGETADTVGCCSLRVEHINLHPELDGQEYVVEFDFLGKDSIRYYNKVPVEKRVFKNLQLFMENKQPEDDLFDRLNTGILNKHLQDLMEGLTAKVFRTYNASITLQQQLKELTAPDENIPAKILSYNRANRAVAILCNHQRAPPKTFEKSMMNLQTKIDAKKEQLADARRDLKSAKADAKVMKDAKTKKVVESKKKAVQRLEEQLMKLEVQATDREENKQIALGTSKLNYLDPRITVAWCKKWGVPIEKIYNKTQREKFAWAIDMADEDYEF
Method: Supercoiled pHOT1 DNA (0.5 μg) was incubated with four units of human topoisomerase I in relaxation buffer (10mM Tris-HCl (pH 7.8), 1mM EDTA, 0.15M NaCl, 0.1% BSA, 0.1 spermidine, 5% glycerol), in the presence of varying concentrations of the test compounds. Reactions were carried out at 37 °Cfor 1 h and then terminated by the addition of sodium dodecyl sulfate (SDS) to 0.25% and proteinase K to 50 μg/ml. The reaction mixture was subjected to electrophoresis through a 0.8% agarose gel containing […] in TAE buffer ([…] and 1mM EDTA). The gels were stained with ethidium bromide and photographed under UV light. For the quantitative determination of topoisomerase concentration activity, photographic negatives were scanned and the area representing supercoiled DNA, migrating as a single band at the bottom of the gel was measured using UVI-KS4000i gel documentation and analysis system (SyngenBiotech, Sacramento, CA).

[1] = target: DNA topoisomerase I (Homo sapiens); test: Supercoiled pHOT1 DNA (0.5 μg) was incubated with four units of human topoisomerase I in relaxation buffer (10mM Tris-HCl (pH 7.8), 1mM EDTA, 0.15M NaCl, 0.1% BSA, 0.1 spermidine, 5% glycerol), in the presence of varying concentrations of the test compounds. Reactions were carried out at 37 °Cfor 1 h and then terminated by the addition o

| IC50 (DNA topoisomerase 1) | IC50 [1] | SMILES |
| --- | --- | --- |
| 250 µM | 250 µM | COc1ccc(NC(=S)NNC(=O)C2CCNCC2)cc1 [DNA topoisomerase inhibitor, 4] |
| 250 µM | 250 µM | O=C(NNC(=S)Nc1ccc(I)cc1)C1CCNCC1 [DNA topoisomerase inhibitor, 5] |
| 250 µM | 250 µM | O=C(NNC(=S)Nc1ccc(Br)cc1)C1CCNCC1 [DNA topoisomerase inhibitor, 6] |
| > 350 µM | > 350 µM | CCc1ccc(NC(=S)NNC(=O)C2CCNCC2)cc1 [DNA topoisomerase inhibitor, 7] |
| > 350 µM | > 350 µM | CCNC(=S)NNC(=O)C1CCNCC1 [DNA topoisomerase inhibitor, 8] |

Second part, the molecule before the results:

| SMILES | IC50 (DNA topoisomerase 1) | IC50 [1] |
| --- | --- | --- |
| COc1cc([C@@H]2c3cc4c(cc3[C@@H](O[C@@H]3O[C@@H]5CO[C@@H](C)O[C@H]5[C@H](O)[C@H]3O)[C@H]3COC(=O)[C@H]23)OCO4)cc(OC)c1O [4'-Demethylepipodophyllotoxin 9-(4,6-O-(R)-ethylidene-beta-D-glucopyranoside)] | > 350 µM |  |
| Cc1nc[nH]c1C(=O)NNC(=S)NC(=O)c1ccccc1 [DNA topoisomerase inhibitor, 1] | 100 µM | 50 µM |
| O=C(NC(=S)NNC(=O)c1cc2ccccc2[nH]1)c1ccccc1 [DNA topoisomerase inhibitor, 2] | 100 µM | 50 µM |
| O=C(NNC(=S)Nc1ccccc1)C1CCNCC1 [DNA topoisomerase inhibitor, 3] | 250 µM | 250 µM |

From BindingDB's records for doi:10.3109/14756366.2013.768987 (Medical University, 2014)
